Test results from PMC12154555, “Beyond natural flavonoids: exploring bioisosterism in design and synthesis of influenza endonuclease inhibitors” (RSC Medicinal Chemistry, 2025).
Read-outs that look alike come from different tables or passages of the source.

How the values were obtained:
[1] = molecular target: T1, influenza A polymerase (Influenza A virus, UniProt P15659); assay: cell-based; format: cell-based, influenza A/WSN/33 H1N1; settings: for EC50: read-out: EC50 minireplicon HEK 293T
[2] = molecular target: T1, influenza A polymerase; assay: cell-based; parameters: species or system influenza A/WSN/33 H1N1; settings: read-out: EC50 minireplicon A549
[3] = system: influenza A (A/California/07/2009 (H1N1)); assay: Cytopathic effect reduction assay in MDCK cells; format: cell-based; settings: for EC50: read-out: EC50 antiviral testing MDCK
[4] = system: influenza A (A/California/07/2009 (H1N1)); assay: Cytopathic effect reduction assay in A549 cells; format: cell-based; settings: for EC50: read-out: EC50 antiviral testing A549
[5] = Cytotoxicity assay (XTT), HEK 293T cells; format: cell-based; settings: human
Procedure: HEK 293T, A549 and MDCK cells were seeded at 3 × 10^3 cells per well in 100 μL DMEM complete medium. The following day, compounds were added to the corresponding wells, and the cells were incubated for 48 hours at 37 °C in 5% CO2. After incubation, cell viability was analyzed by XTT colorimetric assay. Then, 50 μL of a 50 : 1 mixture of XTT labelling reagent (1 mg mL^−1) and PMS electron-coupling reagent (0.383 mg mL^−1) were added to the wells and incubated for 4 hours at 37 °C in 5% CO2. The formation of orange formazan dye was measured on a Tecan Spark plate reader (Tecan Life Sciences, USA). The experiments were performed in biological triplicates, and the resulting data were analyzed using GraphPad Prism 10.0 software (GraphPad Software, San Diego, CA, USA). […]
incubating serial dilutions of each tested compound and control compounds with the selected cell cultures. HEK 293T cells were seeded at 3x10^3 cells per well in 100 μl of DMEM complete medium. The following day the tested compounds were added to the corresponding well and the cells were incubated for 48 hours at 37 °C in 5% CO 2. After incubation, cell viability was analysed by XTT colorimetric assay. 50 μl of 50:1 mixture of XTT labelling reagent (1 mg/mL) and PMS electron-coupling reagent (0.383 mg/mL) were added to the wells and incubated for 4 hours at 37 °C in 5% CO2. The formation of orange formazan dye was measured on a Tecan Spark plate reader (Tecan Life Sciences, USA). The experiments were performed in biological triplicates, and the resulting data were analyzed using GraphPad Prism 10.0 software (GraphPad Software, San Diego, […]

[6] = Cytotoxicity assay (XTT), A549 cells; format: cell-based, human; settings: human
Procedure: (§1) HEK 293T, A549 and MDCK cells were seeded at 3 × 10^3 cells per well in 100 μL DMEM complete medium. The following day, compounds were added to the corresponding wells, and the cells were incubated for 48 hours at 37 °C in 5% CO2. After incubation, cell viability was analyzed by XTT colorimetric assay. Then, 50 μL of a 50 : 1 mixture of XTT labelling reagent (1 mg mL^−1) and PMS electron-coupling reagent (0.383 mg mL^−1) were added to the wells and incubated for 4 hours at 37 °C in 5% CO2. The formation of orange formazan dye was measured on a Tecan Spark plate reader (Tecan Life Sciences, USA). The experiments were performed in biological triplicates, and the resulting data were analyzed using GraphPad Prism 10.0 software (GraphPad Software, San Diego, CA, USA).

[7] = Cytotoxicity assay (XTT), MDCK cells; format: cell-based, canine; settings: dog
Procedure: as §1

[8] = system: A549 cells; assay: Cytotoxicity assay (XTT), A549 cells; format: cell-based, human
Procedure: as §1

[9] = system: MDCK cells; assay: Cytotoxicity assay (XTT), MDCK cells; format: cell-based, canine
Procedure: as §1

[10] = Influenza A virus, H1N1, MDCK, 72 h
[11] = Influenza A virus, H1N1, A549, 96 h

Compound | EC50 [1] [nM] | EC50 [2] [nM] | EC50 [3, 10] [µM] | EC50 [4, 11] [µM] | CC50 at 48 h [5] [µM] | CC50 at 48 h [6] [µM] | CC50 at 48 h [7] [µM] | EC50 minireplicon HEK 293T [1] | CC50 at 48 h ([5]; HEK 293T cells, 48 hours, XTT, read-out: CC50 cytotoxicity HEK 293T) [µM] | CC50 at 48 h ([6]; A549 cells, 48 hours, XTT, read-out: CC50 cytotoxicity A549) [µM] | CC50 at 48 h ([7]; MDCK cells, 48 hours, XTT, read-out: CC50 cytotoxicity MDCK) [µM] | EC50 antiviral testing MDCK [3] | EC50 [3] [µM] | EC50 antiviral testing A549 [4] | EC50 [4] [µM] | CC50 [8] [µM] | CC50 cytotoxicity A549 [8] | CC50 [9] [µM] | CC50 cytotoxicity MDCK [9]
Oc1cc(O)c2c(O)cc(-c3ccc(O)c(O)c3)cc2c1 [Compound 24, 6-(3,4-Dihydroxyphenyl)naphthalene-1,3,8-triol] | 1100 ± 100 | 800 ± 200 | > 100 | 12 ± 1 | > 50 | > 50 | > 50 |  |  |  |  |  |  |  |  |  |  |  | 
O=c1[nH]c(-c2cc(O)c3c(O)cc(O)cc3c2)cnc1O [Compound 34, 3-Hydroxy-6-(4,5,7-trihydroxynaphthalen-2-yl)pyrazin-2(1H)-one] | 1800 ± 100 | 1700 ± 400 | > 100 | > 100 | > 50 | > 50 | > 50 |  |  |  |  |  |  |  |  |  |  |  | 
O=c1[nH]c(-c2cc(O)c3c(O)cc(O)cc3c2)ncc1O [Compound 36, 5-Hydroxy-2-(4,5,7-trihydroxynaphthalen-2-yl)pyrimidin-4(3H)-one] | 1400 ± 200 | 1800 ± 500 | > 100 | 10 ± 1 | > 50 | > 50 | > 50 |  |  |  |  |  |  |  |  |  |  |  | 
COC(=O)OCOc1c2n(ccc1=O)N([C@@H]1c3ccccc3SCc3c1ccc(F)c3F)[C@@H]1COCCN1C2=O [BMX, baloxavir marboxil, reference compound] |  |  | 0.03 ± 0.008 | 1.8 ± 0.4 | > 50 | > 50 | > 50 |  |  |  |  |  |  |  |  |  |  |  | 
O=c1cc(-c2ccc(O)c(O)c2)oc2cc(O)cc(O)c12 [Luteolin, luteolin, reference compound] | > 100000 | 9200 ± 4100 | > 100 | 20 ± 2 |  |  |  | did not show any inhibition | > 50 | > 50 | > 50 |  |  |  |  |  |  |  | 
O=c1cc(-c2cc(O)c3c(O)cc(O)cc3c2)[nH]cc1O [Compound 33, 5-Hydroxy-2-(4,5,7-trihydroxynaphthalen-2-yl)pyridin-4(1H)-one] | 2100 ± 200 | 2800 ± 600 | 41 ± 13 | 2.4 ± 0.4 | > 50 | > 50 | > 50 |  |  |  |  |  |  |  |  |  |  |  | 
O=C1c2c(O)c(=O)ccn2N([C@@H]2c3ccccc3SCc3c2ccc(F)c3F)[C@@H]2COCCN12 [BXA, baloxavir acid, reference compound] |  |  |  |  |  |  |  |  |  |  |  | […] | […] | […] | […] | 14 ± 3 | moderate cytotoxicity | 5 ± 1 | moderate cytotoxicity
